US10350255B2, “Polygonum cuspidatum extracts” (priority 2015, dated 2019)
Read-outs that look alike come from different tables or passages of the source.

Columns and labels:
microorganisms = assay: Photodynamic inactivation by isolated fractions and commercial anthraquinones; type: cell-based; conditions: for Order of photodynamic inactivation of microorganisms: commercial samples of anthraquinones; for Photodynamic effect of components isolated by fractionation: isolated by fractionation of the extract
Description: The anthraquinones, or their glycosylated derivatives, could be responsible for the photosensitizing effect of the extract. […] Commercial samples of anthraquinones produced photodynamic inactivation of microorganisms in the order emodin>physcion>rhein. In some P. cuspidatum extracts, the proportions of emodin and physcion are between 0.51-0.65% and 0.24-0.27% by weight, respectively.

S. mutans = assay: Agar diffusion test (TSA, bored hole / paper disk), dark vs light; type: cell-based, Streptococcus mutans; conditions: for zone of inhibition at 5000 µg/mL: chlorhexidine control 5 mg/mL
S. aureus = assay: as above; type: cell-based, Staphylococcus aureus; conditions: for zone of inhibition at 5000 µg/mL: Staphylococcus aureus, chlorhexidine control 5 mg/mL
[1] = light-activated, extract 40 μg, components at their proportions found in the extract
[2] = light-activated, extract 40 μg, components at their proportions found in the extract, listed as Emodin 0.001%
[3] = comparative test, samples at strength as labelled, dark
[4] = comparative test, samples at strength as labelled, light 36 J cm^-2

## Cc1cc(O)c2c(c1)C(=O)c1cc(O)cc(O)c1C2=O [Emodin]
microorganisms
  Order of photodynamic inactivation of microorganisms: emodin>physcion>rhein
  Photodynamic effect of components isolated by fractionation: greatest photodynamic effect
S. mutans; Streptococcus mutans, light or radiation study, higher concentrations: 20 μL of 2 mg mL^-1 = 40 μg, light 36 J cm^-2 (FIG. 14), read-out: Inhibition zone (photoactivity)
  zone of inhibition at 40 µg/disc: 10 mm
S. mutans; [1]
  Inhibition zone, S. mutans, Light: 7 mm
S. mutans; [2]
  Inhibition zone, S. mutans, Light: 7.0 mm
S. aureus; [2]
  Inhibition zone, S. aureus, Light: 8.5 mm

## COc1cc(O)c2c(c1)C(=O)c1cc(C)cc(O)c1C2=O [Physcion]
microorganisms
  Order of photodynamic inactivation of microorganisms: emodin>physcion>rhein
S. mutans; [1]
  Inhibition zone, S. mutans, Light: inactive
S. aureus; light-activated, extract 40 μg, components at their proportions found in the extract, listed as Physcion 0.001%
  Inhibition zone, S. aureus, Light: 8.5 mm

## Cc1cc2nc3ccc(N(C)C)cc3[s+]c2cc1N.[Cl-] [TB 1%, Toluidine Blue 0]
S. mutans; [3]
  Inhibition zone, S. mutans, Dark: 15 mm
S. mutans; [4]
  Inhibition zone, S. mutans, Light: 15 mm
S. aureus; [3]
  Inhibition zone, S. aureus, Dark: 15 mm
S. aureus; [4]
  Inhibition zone, S. aureus, Light: 16 mm

## COc1cc(O[C@@H]2O[C@H](CO)[C@@H](O)[C@H](O)[C@H]2O)c2c(c1)C(=O)c1cc(C)cc(O)c1C2=O [anthraquinones A]
microorganisms
  Photodynamic effect of components isolated by fractionation: inactive

## Cc1cc(O)c2c(c1)C(=O)c1cc(O)cc(O[C@@H]3O[C@H](CO)[C@@H](O)[C@H](O)[C@H]3O)c1C2=O [anthraquinones B, Anthraglycoside B]
microorganisms
  Photodynamic effect of components isolated by fractionation: inactive

## [H]/N=C(\N/C(=N/[H])NCCCCCCNC(=N)NC(=N)Nc1ccc(Cl)cc1)Nc1ccc(Cl)cc1 [chlorhexidine, Chlorhexidine Digluconate]
S. mutans; Streptococcus mutans, dark, read-out: Inhibition zone, S. mutans, dark (reference)
  zone of inhibition at 5000 µg/mL: 18 mm
S. mutans; Streptococcus mutans, light 35 J cm^-2, read-out: Inhibition zone, S. mutans, light (reference)
  zone of inhibition at 5000 µg/mL: 18 mm
S. aureus; dark, read-out: Inhibition zone, S. aureus, dark (reference)
  zone of inhibition at 5000 µg/mL: 18 mm
S. aureus; light 35 J cm^-2, read-out: Inhibition zone, S. aureus, light (reference)
  zone of inhibition at 5000 µg/mL: 18 mm

## Oc1ccc(C=Cc2cc(O)cc(O)c2)cc1 [resveratrol, Resveratrol]
S. mutans; agar diffusion, dark (FIG. 14)
  Antimicrobial activity in the dark: inactive
S. mutans; agar diffusion, light 36 J cm^-2 (FIG. 14)
  Antimicrobial activity with light activation: inactive
